Patent US20220233523A1, “ANTIBIOTIC POTENTIATION FOR NONTUBERCULOUS MYCOBACTERIAL DISEASE” (priority 2019, published 2022)
Where “and” joins values, the source holds several entries; their conditions need not be identical. Identical values can stand only once. Marks after values point to notes of the source that are not given here.

What was measured:
MAH104 biofilms = type: cell-based, Mycobacterium avium subsp hominissuis 104 (MAH104); conditions: for lower capacity of biofilms to use the substrate compared with planktonic cultures: O.D.590 nm, biofilm vs planktonic; for Biofilm (metabolite used): Biolog PM1/PM2A substrates, 7 days at 37° C., end-point assay; for metabolized by biofilm cultures: Biolog PM1/PM2A plates
Protocol: (§1) Metabolic phenotype study was performed with planktonic and biofilm cultures using the 96-well plates PM1 and PM2A (BIOLOG™, Hayward, Calif.). The assays with planktonic cells and biofilms were made at the same time. Each plate contains carbon substrates and one negative control well, in which the bacteria is tested without any substrate. The tests with planktonic and biofilm cultures were performed at the same time and the culture inoculum have the same number of passages. […] The experiments were made as an end-point assay.
The cultures of biofilms were established for 7 days in regular polystyrene 96 well plates, not in PM Biolog plates, as described above with a minor difference. […] (total of 14 days of biofilm incubated at 37° C.). To obtain spectrophotometric measurements from biofilm cultures (O.D.590 nm), the plate was centrifuged for 20 minutes at 3500 rpm at 20° C., which reduce bacteria interference with the readings, and biofilm supernatant was transferred to a new 96 well plates for O.D.590 nm measurement.
(§2) Experiments were performed three times as an end-point assay. If planktonic and/or biofilm cultures were able to metabolize a specific metabolite substrate, electrons from NADH reduce the Redox dye in an irreversible reaction that generates a purple color in the PM plate wells. The signal (+) and (−) indicates, respectively, whether a purple color was produced or not. Abiotic reductions of the Redox dye were assessed through adding bacteria-free GN/GP-IF-0a fluid in the wells. Negative control corresponds to the wells without any metabolic substrate.

[1] = tested on: planktonic MAH104 cultures; type: cell-based, Mycobacterium avium subsp hominissuis 104 (MAH104); conditions: for Planktonic (metabolite used): Biolog PM1/PM2A plates, 7 days at 37° C., end-point assay
Protocol: as §1
To prepare the inoculum of planktonic cells for PM plates, MAH104 was cultivated in 7H9 medium with 10% OADC and 0.05% of tween20. After the cells reached a mid-logarithmic phase (O.D. at 595 nm=0.3 to 0.6), the cultures were harvested and washed three times with deionized water (centrifugation conditions; 3500 rpm for 20 minutes at 20° C.) and incubated in water for 24 hours at 25° C. as a starvation step. […] A volume of 100 μl of this final bacteria suspension was inoculated into the wells of PM1 and PM2A plates. These plates were incubated for 7 days at 37° C. and after the incubation the O.D. at 590 nm of the plates were measured.
as §2

[2] = tested on: intracellular MAH 104 in THP-1 macrophages; assay: Treatment of MAH inside human THP-1 macrophages with antibiotics and metabolites (CFU); type: cell-based, Mycobacterium avium subsp hominissuis 104 (MAH104); conditions: for CFU/ml of macrophage lysate, 2 h: 2 h (baseline); for CFU/ml of macrophage lysate, 4 days: clarithromycin 16 μg/ml, amikacin 4 μg/ml, none 8.2 +/− 0.3 × 10^5
Protocol: Human THP-1 cell line (TIB-202) (American Type Culture Collection, Manassas, Va.) was cultivated in RPMI-1640 medium with 10% of heat-inactivated fetal bovine serum (FBS, GEMINI B10-PRODUCTS, Sacramento, Calif.), at 37° C. with 5% CO2. The THP-1 cells were maintained in 75 cm^2 tissue culture flasks. The differentiation of THP-1 monocytes into macrophages with PMA (phorbol 12-myristate 13-acetate) (SIGMA ALDRICH) and intracellular antibiotic killing assays were performed as previously described (Rojony et al., Clinical proteomics 2019; 16:39). […] As a negative control, differentiated THP-1 cells were incubated without any antibiotics and with no metabolites. THP-1 cells were replenished with new media containing antibiotics, or no antibiotic, every other day. Cells were lysed at 2 h (baseline) and day 4 and subsequently the number of viable bacteria was determined by CFU counting on 7H10 agar plates.

MAH 3393 biofilm = assay: Amikacin with short-chain fatty acids on biofilm of lung isolate MAH 3393; type: cell-based; conditions: amikacin concentration: 4 mg/ml; untreated 1.0 +/− 0.8 × 10^8
MAH 3388 biofilm = assay: Amikacin with short-chain fatty acids on biofilm of lung isolate MAH 3388; type: cell-based; conditions: amikacin concentration: 4 mg/ml; untreated 9.4 +/− 0.2 × 10^7
Protocol: (§3) As a negative control, biofilms were incubated only with non-supplemented 7H9 without any antibiotics. […] Subsequently, 100 μl of 0.02% of Triton X-100 (final concentration 0.01%) was added to the established biofilms to mix, dilute and perform CFU analysis with the entire population of biofilms (attached and unattached).
Biofilms were established from an MAH strain isolated from the lungs of a patient (MAH 3388).

[3] = tested on: MAH (strain 104) in established biofilms; assay: Treatment of established MAH biofilms with antibiotics and metabolites (CFU); type: cell-based, Mycobacterium avium subsp hominissuis 104 (MAH104); conditions: for numbers of bacteria in biofilms / CFU/ml at 14 days: established biofilms; for numbers of bacteria in biofilms: antibiotic alone or co-treatment; for CFU/ml at 14 days: clarithromycin 16 μg/ml, amikacin 4 μg/ml, 0.05% propionic or butyric acid, 0.2% glycerol, none 4.2 +/− 0.5 × 10^8
Protocol: as §3, with “To assess the antibiotic tolerance of MAH biofilms to amikacin (4 μg/ml) and clarithromycin (16 μg/ml), biofilms were formed for 14 days as described herein. […] As” for “As”
Mycobacteria biofilms were first established and then treated or not treated with antibiotics. In parallel, biofilms were also co-treated with antibiotics and the targeted metabolites.

[4] = tested on: M. avium 104 static biofilms; assay: Static biofilm formation in the presence of metabolites (crystal violet); type: cell-based, Mycobacterium avium subsp hominissuis 104 (MAH104); conditions: 1% and 0.5%, 7H9, 7 days at 37° C., crystal violet
Protocol: Static biofilms were used in the present study as described previously (Rose S J, Bermudez L E., Infection and Immunity 2014; 82:405-12). Briefly, mycobacteria were taken from 7H10 agar plates and resuspended in deionized water (10^9 of colony forming units/ml; CFU/ml). The bacterial suspension was then washed 3 times with deionized water to remove any remaining of 7H10 media (3500 rpm for 20 minutes at 20° C.). After washing, the MAH104 were resuspended in 7H9 medium without any carbon sources (OADC, glycerol, tween 20 and tween 80) (non-supplemented 7H9) and suspensions were left alone to allow clumped bacteria to settle. The top half of the suspension was transferred to new tube and adjusted to 1×10^8 CFU/ml, using visual turbidity and optical density. Suspensions were inoculated in 96-well polystyrene plates (BD, Franklin Lakes, N.J.) (100 μl for each well [or 10^7 bacteria per well]) and biofilms were formed at 37° C. for 7 days or for 14 days when indicated. […] The raw O.D. at 570 nm values were discounted from O.D. 570 nm average of blank wells (wells with only 7H9 media).
(§4) Assays with biofilms incubated with propionic acid, butyric acid, and glycerol were performed to test whether these metabolites affect the formation of biofilms. All the experiments were made in non-supplemented 7H9. The effect of these metabolites was evaluated during biofilm formation, in pre-established biofilms and in M. avium cells pre-attached to polystyrene. To evaluate the effect of targeted metabolites during biofilm formation, mycobacteria suspensions were prepared and inoculated in 96 wells polystyrene plates, as already described, and biofilms were formed in the presence or not of the short-chain fatty acids at different concentrations (1%, 0.5%, 0.1%, 0.05% and 0.01%). For glycerol, only 0.2% was used. The biofilms were formed in 7H9 media at 37° C. for 7 days. For pre-established biofilms, MAH104 was again inoculated in 96 wells plates and biofilms were formed as described herein. […] It was also evaluated whether these metabolites could promote the growth of MAH104 cells present in biofilms through the measurement of […] every 24 hours. Finally, mycobacteria suspension with low density made in 7H9 broth (containing 1×10^6 bacteria/ml) were seeded in 96 wells polystyrene plates and incubated for 7 days at 37° C. […] The growth of pre-attached bacterial cells was followed every 24 hours through O.D.595 nm. The biofilm formation was evaluated by crystal violet.
The next step was to evaluate the capacity of tested substrates to promote the growth of mycobacteria cells that are present in biofilms. […] MAH 104 cells in the presence of non-supplemented 7H9 were used as a negative control. […]

sessile MAH104 cells = assay: Growth and biofilm formation of pre-attached (sessile) cells in nutrient-limited media; type: cell-based, Mycobacterium avium subsp hominissuis 104 (MAH104); conditions: 0.05% fatty acids in non-supplemented 7H9, 7 days; blank 0.091±0.007
Protocol: as §4
Low mycobacterial cells density (10^6/ml) resuspended in non-supplemented 7H9 media were inoculated in 96-well plates and incubated for 7 days at 37° C. to allow the bacteria to attach into polystyrene. The supernatant was discarded to remove planktonic cells and pre-attached bacterium was incubated for 7 days in nutrient-limited media (non-supplemented 7H9). […] The growth of sessile mycobacteria was followed by O.D.595 nm measurement and biofilm formation was determined through crystal violet (O.D.570 nm), since the multiplication of bacteria cells is linked with the formation of biofilms. No growth was observed when sessile MAH104 cells were cultivated in non-supplemented 7H9 broth. […] It is also important to highlight that the O.D.570 nm value for sessile MAH104 forms incubated with non-supplemented 7H9 (O.D.570 nm=0.11±0.039) had no significant difference in comparison with the blank (O.D.570 nm=0.091±0.007) (P=0.37), showing no biofilm formation. […] FIG. 3A-D.

[5] = cited from earlier work

CC(=O)C(=O)O [Pyruvic acid]
lower capacity of biofilms to use the substrate compared with planktonic cultures (MAH104 biofilms): 2.21 fold

polysorbate 20 [Tween 20]
Planktonic (metabolite used) [1]: + | Biofilm (metabolite used) (MAH104 biofilms): + | lower capacity of biofilms to use the substrate compared with planktonic cultures (MAH104 biofilms): 5.4 fold

CCC(O)C(=O)O (stereo not drawn) [α-Hydroxy Butyric acid]
metabolized by biofilm cultures (MAH104 biofilms): unable to metabolize

CC(=O)CC(=O)O [Acetoacetic acid]
metabolized by biofilm cultures (MAH104 biofilms): unable to metabolize

O=C(O)CCCCCCCCC(=O)O [Sebacic acid]
planktonic O.D.590 nm ([1]; Biolog plate, end-point): 0.210±0.069 | Biofilm O.D.590 nm (MAH104 biofilms; Biolog plate, end-point): 0.411±0.059

NCC[C@H](O)C(=O)N[C@@H]1C[C@H](N)[C@@H](O[C@H]2O[C@H](CN)[C@@H](O)[C@H](O)[C@H]2O)[C@H](O)[C@H]1O[C@H]1O[C@H](CO)[C@@H](O)[C@H](N)[C@H]1O [Amikacin, reference compound]
CFU/ml of macrophage lysate, 2 h [2]: 4.5 +/− 0.4 × 10^5 CFU/ml | CFU/ml of macrophage lysate, 4 days [2]: 4.8±0.5×10^4 CFU/ml and 4.8 +/− 0.5 × 10^4* (1) CFU/ml | CFU/mL, MAH 3393 (MAH 3393 biofilm): 5.2 +/− 0.6 × 10^7*(1) CFU/mL | CFU/mL, MAH 3388 (MAH 3388 biofilm): 5.4 +/− 0.9 × 10^7*(1) CFU/mL | numbers of bacteria in biofilms [3]: 5.8±0.5×10^7 | CFU/ml at 14 days [3]: 5.8 +/− 0.5 × 10^7*(1) CFU/ml

CCC(=O)C(=O)O [α-Keto-Butyric acid]
metabolized by biofilm cultures (MAH104 biofilms): unable to metabolize

CC[C@H]1OC(=O)[C@H](C)[C@@H](O[C@H]2C[C@@](C)(OC)[C@@H](O)[C@H](C)O2)[C@H](C)[C@@H](O[C@@H]2O[C@H](C)C[C@H](N(C)C)[C@H]2O)[C@](C)(OC)C[C@@H](C)C(=O)[C@H](C)[C@@H](O)[C@]1(C)O [Clarithromycin, reference compound]
CFU/ml of macrophage lysate, 2 h [2]: 4.5 +/− 0.4 × 10^5 CFU/ml | CFU/ml of macrophage lysate, 4 days [2]: 3.9±0.3×10^4 CFU/ml and 3.9 +/− 0.3 × 10^4* (1) CFU/ml | numbers of bacteria in biofilms [3]: 8.9±0.8×10^7 | CFU/ml at 14 days [3]: 8.9 +/− 0.8 × 10^7*(1) CFU/ml

polysorbate 80 [Tween 80]
Planktonic (metabolite used) [1]: + | Biofilm (metabolite used) (MAH104 biofilms): + | lower capacity of biofilms to use the substrate compared with planktonic cultures (MAH104 biofilms): 3.45 fold

CCCCCC(=O)O [Caproic acid]
biofilm formation with 1% and 0.5% of fatty acid [4]: significant decrease | O.D.570 nm of sessile MAH104 (crystal violet, biofilm formation) (sessile MAH104 cells): 0.177±0.017 | CFU/ml of macrophage lysate, 2 h [2]: 3.1 +/− 0.4 × 10^5 CFU/ml | CFU/ml of macrophage lysate, 4 days [2]: 5.3 +/− 0.4 × 10^5* (1) CFU/ml | lower capacity of biofilms to use the substrate compared with planktonic cultures (MAH104 biofilms): 4.27 fold | killing capacity of clarithromycin ([3]; established M. avium 104 biofilms, 72 hours, FIG. 4A-D): increase | CFU/ml at 14 days [3]: 6.4 +/− 0.2 × 10^6*(1) CFU/ml

COC(=O)C(C)=O [Methyl Pyruvate]
lower capacity of biofilms to use the substrate compared with planktonic cultures (MAH104 biofilms): 1.8 fold

NC[C@H]1O[C@H](O[C@H]2[C@H](O)[C@@H](O[C@H]3O[C@H](CO)[C@@H](O)[C@H](N)[C@H]3O)[C@H](N)C[C@@H]2N)[C@H](N)C[C@@H]1O [tobramycin]
concentration in expectorated sputum (Mean) ([5]; 10 minutes after delivery of 300 mg by nebulizer): 1,237 μg/g of sputum | concentration in the lung epithelial fluid (induced sputum) ([5]; after 300 mg delivered by nebulizer): ~128 µg/g

polysorbate 40 [Tween 40]
Planktonic (metabolite used) [1]: + | Biofilm (metabolite used) (MAH104 biofilms): + | lower capacity of biofilms to use the substrate compared with planktonic cultures (MAH104 biofilms): 3.8 fold

CC(=O)O [Acetic Acid]
lower capacity of biofilms to use the substrate compared with planktonic cultures (MAH104 biofilms): 2.55 fold
